Activity calls are given as the source filed them. No cut-off for these calls is given here.
Experiments:
[1] = test system: Mus musculus; assay: (§1) Antiinflammatory activity in male wild type C57BL/6 mouse model of DSS-induced ulcerative colitis assessed as reduction in crypt loss at 5 to 20 mg/kg, po administered for 10 days with subsequent treatment of DSS for 7 days followed by normal drinking water for 3 days by H and E staining based analysis; format: functional, organism-based; conditions: dose 5-20 mg/kg, time 10.0 day
[2] = test system: THP-1; assay: Inhibition of LPS/nigericin induced caspase-1 P20 release in PMA-differentiated human THP-1 cells at 0.5 to 20 uM preincubated with LPS for 4 hrs followed by compound addition for 30 mins and further incubated with nigericin for 30 mins by Western blot analysis; format: functional, cell-based; conditions: dose 0.5-20 µM, time 60.0 min
[3] = test system: BMDM; assay: Effect on LPS/nigericin induced ASC intracellular expression in M-CSF induced C57BL/6 mouse BMDM cells at 0.5 to 20 uM preincubated with LPS for 4 hrs followed by compound addition for 30 mins and further incubated with nigericin for 30 mins by Western blot analysis; format: functional, cell-based; conditions: dose 0.5-20 µM, time 60.0 min
[4] = test system: THP-1; assay: Inhibition of NLRP3-NEK7 interaction in LPS/nigericin induced PMA-differentiated human THP-1 cells at 5 uM preincubated with LPS for 4 hrs followed by compound addition for 30 mins and further incubated with nigericin for 30 mins by Co-immunoprecipitation analysis; format: cell-based; conditions: time 60.0 min
[5] = Half life in male C57BL/6J mouse at 5 mg/kg, po administered as single dose and measured over 24 hrs by LC-MS/MS analysis; format: ADME, organism-based; conditions: in vivo
[6] = test system: THP-1; assay: Effect on LPS/nigericin induced intracellular pro-caspase-1 protein expression in PMA-differentiated human THP-1 cell lysate at 0.5 to 20 uM pretreated with compound followed by LPS stimulation for 4 hrs and further stimulated with nigericin by Western blot analysis; format: functional, subcellular; conditions: dose 0.5-20 µM
[7] = test system: THP-1; assay: Inhibition of NLRP3-ASC interaction in LPS/nigericin induced PMA-differentiated human THP-1 cells at 5 uM preincubated with LPS for 4 hrs followed by compound addition for 30 mins and further incubated with nigericin for 30 mins by Co-immunoprecipitation analysis; format: cell-based; conditions: time 60.0 min
[8] = test system: Mus musculus; assay: as §1, with “NLRP3 level in colon” for “crypt loss”, “immunoblot” for “H and E staining based”; format: functional, organism-based; conditions: dose 5-20 mg/kg, time 10.0 day
[9] = test system: Mus musculus; assay: Antiinflammatory activity in male wild type C57BL/6 mouse model of DSS-induced ulcerative colitis assessed as reduction in daily disease activity index at 5 to 20 mg/kg, po administered for 10 days with subsequent treatment of DSS for 7 days followed by normal drinking water for 3 days; format: functional, organism-based; conditions: dose 5-20 mg/kg, time 10.0 day
[10] = test system: THP-1; assay: Effect on LPS/nigericin induced intracellular ASC expression in PMA-differentiated human THP-1 cells at 0.5 to 20 uM preincubated with LPS for 4 hrs followed by compound addition for 30 mins and further incubated with nigericin for 30 mins by Western blot analysis; format: functional, cell-based; conditions: dose 0.5-20 µM, time 60.0 min
[11] = Volume of distribution at steady state in male C57BL/6J mouse at 5 mg/kg, iv administered as single dose and measured over 24 hrs by LC-MS/MS analysis; format: ADME, organism-based; conditions: in vivo, read-out: Vdss
[12] = test system: BMDM; assay: Inhibition of LPS/nigericin induced IL-1beta release in M-CSF induced C57BL/6 mouse BMDM cells at 0.5 to 20 uM preincubated with LPS for 4 hrs followed by compound addition for 30 mins and further incubated with nigericin for 30 mins by Western blot analysis; format: functional, cell-based; conditions: dose 0.5-20 µM, time 60.0 min
[13] = test system: THP-1; assay: Effect on LPS/nigericin induced intracellular pro-IL-1beta protein expression in PMA-differentiated human THP-1 cell lysate at 0.5 to 20 uM pretreated with compound followed by LPS stimulation for 4 hrs and further stimulated with nigericin by Western blot analysis; format: functional, subcellular; conditions: dose 0.5-20 µM
[14] = Oral bioavailability in male C57BL/6J mouse at 5 mg/kg administered as single dose and measured over 24 hrs by LC-MS/MS analysis; format: ADME, organism-based; conditions: in vivo
[15] = test system: Mus musculus; assay: Antiinflammatory activity in male NLRP3 knockout C57BL/6 mouse model of DSS-induced ulcerative colitis assessed as reduction in colon shortening at 20 mg/kg, po administered for 10 days with subsequent treatment of DSS in drinking water; format: functional, organism-based; conditions: time 10.0 day
[16] = test system: Mus musculus; assay: Antiinflammatory activity in male NLRP3 knockout C57BL/6 mouse model of DSS-induced ulcerative colitis assessed as reduction in IL-1beta level in colon at 20 mg/kg, po administered for 10 days with subsequent treatment of DSS in drinking water by immunohistochemistry analysis; format: functional, organism-based; conditions: time 10.0 day
[17] = test system: Mus musculus; assay: Antiinflammatory activity in male NLRP3 knockout C57BL/6 mouse model of DSS-induced ulcerative colitis assessed as reduction in daily disease activity index at 20 mg/kg, po administered for 10 days with subsequent treatment of DSS in drinking water; format: functional, organism-based; conditions: time 10.0 day
[18] = test system: BMDM; assay: Inhibition of LPS/nigericin induced caspase-1 P20 release in M-CSF induced C57BL/6 mouse BMDM cells at 0.5 to 20 uM preincubated with LPS for 4 hrs followed by compound addition for 30 mins and further incubated with nigericin for 30 mins by Western blot analysis; format: functional, cell-based; conditions: dose 0.5-20 µM, time 60.0 min
[19] = target: T1, Interferon-inducible protein AIM2 (Homo sapiens) (UniProt O14862); assay: Inhibition of poly-(dA: dT)-induced AIM2 inflammasome activation in LPS-primed human THP-1 cells assessed as inhibition of IL-1beta secretion at 5 uM pretreated with LPS for 4 hrs followed by compound addition for 0.5 hrs and further stimulated with poly-(dA: dT) for 6 hrs by Western blot analysis; format: cell-based; conditions: time 6.5 hrs
T1 sequence (whole entry): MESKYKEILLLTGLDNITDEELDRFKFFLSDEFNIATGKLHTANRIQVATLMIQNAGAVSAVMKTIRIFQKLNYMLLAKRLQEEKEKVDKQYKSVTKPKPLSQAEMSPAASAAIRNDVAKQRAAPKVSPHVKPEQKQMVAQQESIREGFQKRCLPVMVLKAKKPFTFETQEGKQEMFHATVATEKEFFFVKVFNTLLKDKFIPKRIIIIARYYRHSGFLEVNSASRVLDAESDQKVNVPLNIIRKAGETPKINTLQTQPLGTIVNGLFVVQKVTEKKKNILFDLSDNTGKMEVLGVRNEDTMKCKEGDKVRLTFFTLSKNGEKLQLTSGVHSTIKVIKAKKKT

[20] = test system: BMDM; assay: Cytotoxicity against C57BL/6 mouse BMDM cells assessed as reduction in cell viability at 0.5 to 100 uM measured after 24 hrs by MTT assay; format: toxicity, cell-based; conditions: dose 0.5-100 µM

For `COc1ccccc1CCNC(=O)/C(=C/c1ccc(Br)cc1)CS(=O)(=O)CCC#N`, the Activity [1] was “Active”, the inhibition [2] was “Active” and the Activity [3] was “inactive”. The inhibition [4] was “Active”, the half-life [5] was 43.2 min and the Activity [6] was “inactive”. For the same compound, the inhibition [7] was “Active”, the Activity [8] was “Active” and the Activity [9] was “Active”. For the same compound, the Activity [10] was “inactive”, the Vd [11] was 1.4 L/kg and the inhibition [12] was “Active”. The Activity [13] was “inactive”, the bioavailability [14] was 16.7% and the Activity [15] was “inactive”. For the same compound, the Activity [16] was “inactive”, the Activity [17] was “inactive” and the inhibition [18] was “Active”. The inhibition [19] was “inactive” and the Activity [20] was “Non-Toxic”.

From ChEMBL document CHEMBL5579897, “Design, Synthesis, and Bioevaluation of Novel NLRP3 Inhibitor with IBD Immunotherapy from the Virtual Screen” (J Med Chem, 2024)
